Source: patent US6184374A, “Targeted cytotoxic anthracycline analogs” (priority 1998, dated 2001)

Legend:
rat pituitary receptors = target: T1, rat pituitary receptors (Rattus norvegicus, UniProt P30969); assay: Receptor binding potency, rat pituitary receptors
T1 construct: from tissue; host or cells: rat pituitary
T1 sequence (P30969 1-327): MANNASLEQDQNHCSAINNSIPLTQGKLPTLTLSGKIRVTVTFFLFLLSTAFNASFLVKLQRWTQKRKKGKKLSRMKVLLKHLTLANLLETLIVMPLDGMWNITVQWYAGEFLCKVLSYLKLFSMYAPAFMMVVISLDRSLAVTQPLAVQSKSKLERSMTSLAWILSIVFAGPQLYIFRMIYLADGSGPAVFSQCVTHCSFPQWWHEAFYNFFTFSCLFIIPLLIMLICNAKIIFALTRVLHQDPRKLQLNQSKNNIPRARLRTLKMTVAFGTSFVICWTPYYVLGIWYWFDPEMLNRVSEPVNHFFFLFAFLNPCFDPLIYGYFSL

breast cancer receptors = target: T2, breast cancer receptors (Homo sapiens, UniProt P30968); assay: Receptor binding potency, breast cancer receptors
T2 construct: from tissue
T2 sequence (P30968 1-328): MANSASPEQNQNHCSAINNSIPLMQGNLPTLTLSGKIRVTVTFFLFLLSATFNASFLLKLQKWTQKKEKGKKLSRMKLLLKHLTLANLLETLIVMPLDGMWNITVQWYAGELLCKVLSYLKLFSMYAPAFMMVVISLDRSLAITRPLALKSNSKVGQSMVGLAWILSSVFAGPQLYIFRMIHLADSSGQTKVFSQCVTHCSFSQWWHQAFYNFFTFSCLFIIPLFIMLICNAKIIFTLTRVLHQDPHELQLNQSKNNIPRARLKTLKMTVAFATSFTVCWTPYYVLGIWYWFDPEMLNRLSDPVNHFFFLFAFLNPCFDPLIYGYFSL

[1] = tested on: estrogen independent MXT mouse mammary cancers; assay: Single treatment of estrogen independent MXT mouse mammary cancers (KS-55); format: in vivo; details: single dose of 650 nmol/20 g mouse (as printed in text)
Experimental: In order to determine the maximum tolerated doses and compare the effects, MXT (3.2) ovex tumor pieces (1 mm^3) were implanted s.c. in female B6 D2 F1 mice. One day after transplantation the mice were randomly divided into groups of five animals and they were treated with a single injection i.p. The groups and doses are shown in the Table 25-1. […] The compounds were dissolved in 0.1% TFA (pH: 2.0). Tumor volume was measured on days 10, 13, 17, and 20.

[2] = target: T3, bombesin receptors on Swiss 3T3 cell line (Mus musculus, UniProt P21729); assay: Displacement of [125I-Tyr4]BN binding on Swiss 3T3 cells
T3 construct: host or cells: Swiss 3T3 cells
T3 sequence (P21729 whole entry): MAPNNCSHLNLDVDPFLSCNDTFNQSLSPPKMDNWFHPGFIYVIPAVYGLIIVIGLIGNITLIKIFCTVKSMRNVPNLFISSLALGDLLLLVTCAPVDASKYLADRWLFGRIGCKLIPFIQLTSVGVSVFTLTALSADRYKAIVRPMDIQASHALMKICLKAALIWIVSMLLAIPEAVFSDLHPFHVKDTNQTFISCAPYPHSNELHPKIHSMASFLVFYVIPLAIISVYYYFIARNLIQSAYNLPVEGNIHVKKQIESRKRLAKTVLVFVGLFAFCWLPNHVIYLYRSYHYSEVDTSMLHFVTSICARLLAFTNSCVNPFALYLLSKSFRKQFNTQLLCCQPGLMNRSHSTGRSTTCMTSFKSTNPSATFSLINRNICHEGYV
Experimental: Radio iodination of [Tyr^4 ]BN (Sigma) using a Bio-Rad Enzymobead Radio lodination kit and isolation of mono-iodinated [^125 l-Tyr^4 ]BN was performed as described earlier (1). […] Three to five days after seeding, the confluent cells were washed twice with Hanks' Balanced Salt Solution (HBSS) and incubated for 30 min at 37° C. with 50 pM [^125 l-Tyr^4 ]BN in the absence or presence of several concentrations of unlabeled competitors (Q6^14 gB or BN) in a total volume of 0.5 ml binding buffer (DMEM with 50 mM HEPES, 0.1% bovine serum albumin (BSA), 5 mM MgCl2 and 100 μg/ml bacitracin, pH: 7.4). Nonspecific binding was determined in the presence of 1 μM unlabeled ligand. After three washings with ice-cold HBSS containing 0.1% BSA (pH: 7.4) the cells were detached with 0.05% Trypsin/0.53 mM EDTA solution and transferred to tubes. Radioactivity was measured with a gamma-counter (Micromedic Systems Inc, Huntsville, Ala.). Binding data were evaluated using radio ligand binding analysis programs by McPherson (4). Ki values presented in Table 23-1, were calculated according to the formula of Cheng and Prusoff (5).

LH-responses = assay: Hormonal activity of LH-RH analogs (LH-responses rel. to LH-RH); format: cell-based; details: relative to LH-RH = 1
[3] = tested on: estrogen independent MXT mouse mammary cancers; assay: Effect of cytotoxic LH-RH analogs on estrogen independent MXT mouse mammary cancers (KS-47); format: in vivo; details: daily dose of 30 nmol (equimolar) i.p. for 12 days
Experimental: MXT (3.2) ovex tumor pieces (1 mm^3) were transplanted in female B6 D2 F1 mice. The treatment started one day after transplantation and was continued for 12 days by i.p. injections once a day. Tumors were measured on days 10, 14 and 18, and tumor volume was calculated.

COc1cccc2c1C(=O)c1c(O)c3c(c(O)c1C2=O)C[C@@](O)(C(=O)COC(=O)CCCC(=O)NCCCC[C@@H](NC(=O)[C@H](Cc1ccc(O)cc1)NC(=O)[C@H](CO)NC(=O)[C@H](Cc1c[nH]c2ccccc12)NC(=O)[C@H](Cc1c[nH]cn1)NC(=O)[C@@H]1CCC(=O)N1)C(=O)N[C@@H](CC(C)C)C(=O)N[C@@H](CCCNC(=N)N)C(=O)N1CCC[C@H]1C(=O)NCC(N)=O)C[C@@H]3O[C@H]1C[C@H](N)[C@H](O)[C@H](C)O1 [Q1^14 gL, [D-Lys^6 (DOX^14 -O-glt)]LH-RH]
IC50 (rat pituitary receptors): 2.29 nM | IC50 (breast cancer receptors): 7.24 nM | Toxicity [1]: nontoxic

COc1cccc2c1C(=O)c1c(O)c3c(c(O)c1C2=O)C[C@@](O)(C(=O)COC(=O)CCCC(=O)N[C@@H](CCC(N)=O)C(=O)N[C@@H](Cc1c[nH]c2ccccc12)C(=O)N[C@@H](C)C(=O)N[C@H](C(=O)NCC(=O)N[C@@H](Cc1c[nH]cn1)C(=O)N[C@H](CN[C@@H](CC(C)C)C(N)=O)CC(C)C)C(C)C)C[C@@H]3O[C@H]1C[C@H](N2C=CCC2)[C@H](O)[C@H](C)O1 [Q6^14 gB, 2-pyrrolino-DOX^14 -O-glt-Gln-Trp-Ala-Val-Gly-His-Leu.PSI.(CH2 --NH)Leu-NH2]
Ki [2]: 1 nM

COc1cccc2c1C(=O)c1c(O)c3c(c(O)c1C2=O)C[C@@](O)(C(=O)COC(=O)CCCC(=O)NCCCC[C@@H](NC(=O)[C@H](Cc1ccc(O)cc1)NC(=O)[C@H](CO)NC(=O)[C@H](Cc1c[nH]c2ccccc12)NC(=O)[C@H](Cc1c[nH]cn1)NC(=O)[C@@H]1CCC(=O)N1)C(=O)N[C@@H](CC(C)C)C(=O)N[C@@H](CCCNC(=N)N)C(=O)N1CCC[C@H]1C(=O)NCC(N)=O)C[C@@H]3O[C@H]1C[C@H](N2C=CCC2)[C@H](O)[C@H](C)O1 [Q6^14 gL, [D-Lys^6 (2-pyrrolino-DOX^14 -O-glt)]LH-RH]
IC50 (rat pituitary receptors): 5.59 nM | IC50 (breast cancer receptors): 6.7 nM

CC(C)C[C@H](NC(=O)[C@@H](CCCCN)NC(=O)[C@H](Cc1ccc(O)cc1)NC(=O)[C@H](CO)NC(=O)[C@H](Cc1c[nH]c2ccccc12)NC(=O)[C@H](Cc1c[nH]cn1)NC(=O)[C@@H]1CCC(=O)N1)C(=O)N[C@@H](CCCNC(=N)N)C(=O)N1CCC[C@H]1C(=O)NCC(N)=O [[D-Lys^6]LH-RH]
Hormonal activity (LH-responses rel. to LH-RH = 1) (LH-responses): 8 | IC50 (breast cancer receptors): 1.8 nM | Effect on tumor growth [3]: did not affect tumor growth | Mean survival after transplantation [3]: 23.5 days | Mean tumor volume on day 10 [3]: 165 mm^3 | Mean tumor volume on day 14 [3]: 1348 mm^3 | Mean tumor volume on day 18 [3]: 4003 mm^3
